Assay results from patent publication US10253027B2, “Aryl lactam kinase inhibitors” (Bristol-Myers Squibb Company, priority 2013, dated 2019).

The compounds below were run against T1, GST-Xa-hAAK1 (Homo sapiens, UniProt Q2M2I8) (assay: AAK1 Kinase Assay). Conditions: IC50 (nM), ATP 22 μM; 3 hours at room temperature; Caliper LabChip 3000.
T1 construct: made in house
T1 sequence (Q2M2I8 whole entry): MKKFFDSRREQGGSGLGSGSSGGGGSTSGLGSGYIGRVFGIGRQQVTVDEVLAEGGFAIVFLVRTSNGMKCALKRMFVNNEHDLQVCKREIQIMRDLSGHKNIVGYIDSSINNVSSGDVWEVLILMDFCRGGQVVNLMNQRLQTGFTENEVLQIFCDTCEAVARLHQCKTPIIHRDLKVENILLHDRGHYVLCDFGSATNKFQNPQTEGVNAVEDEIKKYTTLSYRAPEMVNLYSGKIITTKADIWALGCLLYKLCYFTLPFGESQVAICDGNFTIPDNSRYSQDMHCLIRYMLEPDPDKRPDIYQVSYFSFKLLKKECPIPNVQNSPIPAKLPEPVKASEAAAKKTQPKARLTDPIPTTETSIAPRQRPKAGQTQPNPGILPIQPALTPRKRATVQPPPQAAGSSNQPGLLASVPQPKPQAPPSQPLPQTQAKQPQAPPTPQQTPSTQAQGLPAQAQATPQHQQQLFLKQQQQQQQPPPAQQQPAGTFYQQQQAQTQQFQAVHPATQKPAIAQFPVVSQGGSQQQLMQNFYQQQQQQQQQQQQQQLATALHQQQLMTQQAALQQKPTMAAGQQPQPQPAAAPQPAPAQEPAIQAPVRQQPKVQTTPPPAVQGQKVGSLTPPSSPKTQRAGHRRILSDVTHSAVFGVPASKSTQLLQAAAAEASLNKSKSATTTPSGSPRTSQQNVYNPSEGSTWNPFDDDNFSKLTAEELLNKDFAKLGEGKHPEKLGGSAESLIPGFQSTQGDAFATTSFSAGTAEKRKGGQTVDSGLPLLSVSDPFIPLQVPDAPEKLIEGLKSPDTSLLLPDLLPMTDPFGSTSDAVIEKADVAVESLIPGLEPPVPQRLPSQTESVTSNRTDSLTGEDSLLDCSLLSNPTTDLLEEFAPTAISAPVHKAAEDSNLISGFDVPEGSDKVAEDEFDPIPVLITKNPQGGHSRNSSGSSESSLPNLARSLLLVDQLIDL
Assay type: biochemical
Summary of the method: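 Bacterially expressed GST-Xa-hAAK1 was combined with substrates and compounds (eleven concentrations) and incubated 3 h at room temperature, then stopped with EDTA. Fluorescent substrate and phosphorylated product were separated electrophoretically (Caliper LabChip), and IC50 values came from non-linear regression.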
With `COc1cc(NC(=O)[C@H](N)CC(C)C)ccc1-c1cnco1` [Example 1, (R)-2-Amino-N-(3-methoxy-4-(oxazol-5-yl)phenyl)-4-methylpentanamide] the IC50 was 36 nM.
`CC(C)C[C@@H](N)C(=O)Nc1ccc(-c2cnco2)c(OC(F)F)c1` [Example 18, (R)-2-Amino-N-(3-(difluoromethoxy)-4-(oxazol-5-yl)phenyl)-4-methylpentanamide] gave an IC50 of 35 nM.
Work on `COc1cc(NC(=O)[C@H](N)C2CCCC2)c(F)cc1-c1cnco1` [Example 100, (R)-2-Amino-2-cyclopentyl-N-(2-fluoro-5-methoxy-4-(oxazol-5-yl)phenyl)acetamide] yielded an IC50 of 530 nM.
`COc1cc(NC(=O)C[C@@H](N)C(C)C)ccc1-c1cnco1` [Example 79, (R)-3-Amino-N-(3-methoxy-4-(oxazol-5-yl)phenyl)-4-methylpentanamide] gave an IC50 of 130 nM.
`Cc1cc(NC(=O)[C@H](N)CC(C)C)ccc1-c1cnco1` [Example 13, (R)-2-Amino-4-methyl-N-(3-methyl-4-(oxazol-5-yl)phenyl)pentanamide] gave an IC50 of 248 nM.
`COc1cc(NC(=O)[C@H](N)CC(C)C)ccc1-c1ccncn1` [Example 117, (R)-2-Amino-N-(3-methoxy-4-(pyrimidin-4-yl)phenyl)-4-methylpentanamide] showed an IC50 of 460 nM.
`COc1cc(NC(=O)C(N)CC(C)C)ccc1-c1cnco1` (stereo not shown) [Example 7, 2-Amino-N-(3-methoxy-4-(oxazol-5-yl)phenyl)-4-methylpentanamide] was tested, and the IC50 was 64 nM.
Compound `COc1cc(NC(=O)[C@H](N)CC(C)C)c(-c2nncs2)cc1-c1cnco1` [Example 103] has an IC50 of 360 nM.
For `COc1cc(NC(=O)[C@@H](CC(C)C)NCc2ccc(Cl)cc2)ccc1-c1cnco1` [Example 60, (R)-2-((4-Chlorobenzyl)amino)-N-(3-methoxy-4-(oxazol-5-yl)phenyl)-4-methylpentanamide], the IC50 was 210 nM.
`COc1cc(NC(=O)[C@@H](CC(C)C)NCc2cccn2C)ccc1-c1cnco1` [Example 61, (R)—N-(3-Methoxy-4-(oxazol-5-yl)phenyl)-4-methyl-2-(((1-methyl-1H-pyrrol-2-yl)methyl)amino)pentanamide] showed an IC50 of 72 nM.
`COc1cc(NC(=O)[C@@H](CC(C)C)NS(=O)(=O)c2ccccc2)ccc1-c1cnco1` [Example 71, (R)—N-(3-methoxy-4-(oxazol-5-yl)phenyl)-4-methyl-2-(phenylsulfonamido)pentanamide] showed an IC50 of 400 nM.
Compound `COc1cc(NC(=O)[C@H](N)CC(C)C)c(-c2nn[nH]n2)cc1-c1cnco1` [Example 102, (R)-2-Amino-N-(5-methoxy-4-(oxazol-5-yl)-2-(2H-tetrazol-5-yl)phenyl)-4-methylpentanamide] has an IC50 of 6 nM.
With `COc1cc(NC(=O)[C@H]2CCCN2)ccc1-c1cnco1` [Example 2, (R)—N-(3-Methoxy-4-(oxazol-5-yl)phenyl)pyrrolidine-2-carboxamide] the IC50 was 346 nM.
Work on `COc1cc(NC(=O)C2NCCCC2C(F)(F)F)ccc1-c1cnco1` (single isomer, unassigned) [Example 91, N-(3-Methoxy-4-(oxazol-5-yl)phenyl)-3-(trifluoromethyl)piperidine-2-carboxamide] yielded an IC50 of 417 nM.
Work on `COc1cc(NC(=O)[C@H](N)CC2CCC2)c(F)cc1-c1cnco1` (stereo in doubt) [Example 94, 2-Amino-3-cyclobutyl-N-(2-fluoro-5-methoxy-4-(oxazol-5-yl)phenyl)propanamide] yielded an IC50 of 750 nM.
`CC(C)C[C@@H](N)C(=O)Nc1cc(F)c(-c2cnco2)cc1F` [Example 105, (R)-2-Amino-N-(2,5-difluoro-4-(oxazol-5-yl)phenyl)-4-methylpentanamide] gave an IC50 of 620 nM.
`COc1cc(NC(=O)[C@H](N)CCSC)ccc1-c1cnco1` [Example 54, (R)-2-Amino-N-(3-methoxy-4-(oxazol-5-yl)phenyl)-4-(methylthio)butanamide] gave an IC50 of 720 nM.

Each compound was assayed on mice (assay: formalin paw test (paw flinching, pain response)). Conditions: 50 mg/kg sc; % response relative to gabapentin 200 mg/kg (=100%); compound given 30 minutes prior to formalin.
Assay type: in vivo, mouse
Protocol: AAK1 homozygous (−/−) and their wild-type (+/+) littermates were tested using the formalin paw test in order to assess their acute and tonic nociceptive responses. For these tests, Automatic Nociception Analyzers (purchased from the Ozaki lab at University of California, San Diego) were used. A metal band was placed around the left hind paw of each mouse 30 minutes prior to testing. After the 30-minute acclimation period, 20 μl of 5% formalin is subcutaneously injected in the dorsal surface of the left hind paw. Mice were individually housed in cylindrical chambers for 45 minutes. Fresh 5% formalin solution was prepared by diluting formaldehyde (Formalde-fresh 20%, Fisher Scientific, Fair Lawn, N.J.) with distilled water. Investigatory compounds were administered 30 minutes prior to formalin injection.
A computer recorded flinches per minute, total flinches for phase I (acute phase=first 8 minutes), and total flinches for phase II (tonic phase=time between minutes 20-40) through an electromagnetic field. See Yaksh T L, Ozaki G, McCumber D, Rathbun M, Svensson C, Malkmus S, Yaksh M C. An automated flinch detecting system for use in the formalin nociceptive bioassay. J Appl Physiol., 2001; 90:2386-402. Phase 1 and phase 2 data were obtained using homozygous (−/−) mice females (n=16), wild-type females (n=15), homozygous (−/−) mice males (n=9), and wild-type males (n=18).
The same test was used to confirm that the administration of an AAK1 inhibitor can also affect pain response.
A compound of the disclosure was tested in this assay at different doses. Gabapentin and pregabalin were used as positive controls. Results are shown below in Table 3, wherein the effect of gabapentin at 200 mg/kg is considered a 100% response, the % response for the other compounds is relative to the 200 mg/kg dose of gabapentin, “sc” means subcutaneous administration; “po” means oral administration.
In the case of `NCC1(CC(=O)O)CCCCC1` [Gabapentin], the Response is reported as 60%.
`CC(C)C[C@H](CN)CC(=O)O` [Pregabalin, pregabalin] was tested, and the Response was 90%.

Same assay, conditions: 60 mg/kg sc; % response relative to gabapentin 200 mg/kg (=100%); compound given 30 minutes prior to formalin
`COc1cc(NC(=O)[C@H](N)CC(C)C)ccc1-c1cnco1` [Example 1, (R)-2-Amino-N-(3-methoxy-4-(oxazol-5-yl)phenyl)-4-methylpentanamide] was tested, and the Response was 90%.
For `CC(C)C[C@@H](N)C(=O)Nc1ccc(-c2cnco2)c(OC(F)F)c1` [Example 18, (R)-2-Amino-N-(3-(difluoromethoxy)-4-(oxazol-5-yl)phenyl)-4-methylpentanamide], the Response was 100%.

Same assay, conditions: 200 mg/kg sc; gabapentin at 200 mg/kg is considered a 100% response
Compound `NCC1(CC(=O)O)CCCCC1` [Gabapentin] has a Response of 100%.
